Data reported in patent US20120129949A1, “Use of Anthracene Derivatives as Anti-Infectives” (SEALIFE PHARMA GMBH, priority 2009, published 2012).
Converted amounts (≈) assume the structure as drawn. Like-named read-outs stand apart in the source and are kept apart here.

Tests used:
[1] = test system: methicillin-resistant Staphylococcus aureus; assay: MIC test, MRSA; format: cell-based; details: for MIC: Staphylococcus aureus, MRSA, read-out: MHK values MRSA (methicillin-resistant Staphylococcus aureus)
Protocol: (§1) The activities of the compounds were tested in two different screening systems. The antibacterial and antifungal activities were examined by means of an MIC test, MIC standing for “minimal inhibitory concentration” and referring to the lowest concentration of a substance at which no proliferation of microorganisms can be observed with the naked eye. The MIC is determined by means of a so called titration method in which the substance is diluted and, subsequently, the pathogen is added to it.
(§2) Usually, this method is applied in order to determine the concentration of an antibiotic which only just inhibits the growth of a bacterial strain. The MIC is indicated in micrograms per milliliter (μg/ml), and the dilutions are conventionally carried out in log2 steps. Herein, a starting concentration of 250 μg/ml was diluted several times, to the double volume in each case, resulting in test concentrations of 250 μg/ml, 125 μg/ml, 62.5 μg/ml, 31.2 μg/ml, 15.6 μg/ml, 7.8 μg/ml, etc. Thus, lower values indicate a better activity as an anti-infective.
(§3) The tests were carried out according to the standards of EUCAST (European Committee for Antimicrobial Susceptibility Testing) and according to the AFST-protocol (“Antifungal Susceptibility Testing” protocol) of the European Society of Clinical Microbiology and Infectious Diseases (ESCMID).
(§4) In the following Table 3, the test results indicating the anti-infective action of altersolanol M, alterporriol I and J as well as of some known and structurally similar comparative substances against some multi-resistant bacteria and fungi (all of which were kindly placed at our disposal by Prof Georgopulos from the Medical University of Vienna). The data constituting averages of the values obtained in multiple test runs.

E. coli = assay: MIC test, multi-resistant E. coli; format: cell-based; details: multi-resistant strain; averages of multiple test runs; log2 dilutions from 250 μg/ml
Protocol: as §1, §2, §3, §4

Acinetobacter baumanii = assay: MIC test, multi-resistant Acinetobacter baumanii; format: cell-based; details: multi-resistant strain; averages of multiple test runs; log2 dilutions from 250 μg/ml
Protocol: as §1, §2, §3, §4

Staphylococcus epidermis = assay: MIC test, multi-resistant Staphylococcus epidermis; format: cell-based; details: for MIC: Staphylococcus, read-out: MHK values SE (Staphylococcus epidermis)
Protocol: as §1, §2, §3, §4

[2] = test system: Enterococcus faecalis or faecium; assay: MIC test, multi-resistant Enterococcus; format: cell-based; details: multi-resistant strain; averages of multiple test runs; log2 dilutions from 250 μg/ml
Protocol: as §1, §2, §3, §4

Streptococcus pneumoniae = assay: MIC test, multi-resistant Streptococcus pneumoniae; format: cell-based; details: for MHK values STR (Streptococcus pneumoniae): multi-resistant strain, averages of multiple test runs, log2 dilutions from 250 μg/ml
Protocol: as §1, §2, §3, §4

[3] = test system: Aspergillus fumigatus or faecalis; assay: MIC test (antifungal), Aspergillus; format: cell-based; details: multi-resistant strain; averages of multiple test runs; log2 dilutions from 250 μg/ml
Protocol: as §1, §2, §3, §4

bacteria and fungi = details: Aly et al., Phytochemistry 69, 1716-1725; cited from earlier work
[4] = Yagi et al., Phytochemistry 34(4), 1005-1009 (1993); cited from earlier work
Klebsiella sp. = assay: MIC test, multi-resistant Klebsiella sp.; format: cell-based; details: multi-resistant strain; averages of multiple test runs; log2 dilutions from 250 μg/ml
Protocol: as §1, §2
(§5) The tests were carried out according to the standards of EUCAST (European Committee for Antimicrobial Susceptibility Testing) and according to the AFST-protocol (“Antifungal Susceptibility Testing” protocol) of the European Society of Clinical Microbiology and Infectious Diseases (ESCMID). […]

[5] = test system: Staphylococcus aureus or methicillin-resistant Staphylococcus aureus; details: Xu et al. 2008; Sommart et al. 2008; cited from earlier work
Pseudomonas aeruginosa = assay: MIC test, multi-resistant Pseudomonas aeruginosa; format: cell-based; details: multi-resistant strain; averages of multiple test runs; log2 dilutions from 250 μg/ml
Protocol: as §1, §2, §5

[6] = multi-resistant strain, averages of multiple test runs, log2 dilutions from 250 μg/ml
[7] = verbal summary of the MIC test series

Question: What does the source list for `COc1cc(O)c(C(=O)O)c(-c2cc(O)c(O)cc2C)c1` [Altenusin]?
Answer: MIC [1]: 31.2 µg/mL (≈ 107 µM); MHK values EC (E. coli) (E. coli): 62.5 µg/mL; MHK values AB (Acinetobacter baumanii) (Acinetobacter baumanii): 62.5 µg/mL; MIC (Staphylococcus epidermis): 31.2 µg/mL (≈ 107 µM); MHK values EK (Enterococcus faecalis or faecium) [2]: 62.5 µg/mL; MHK values STR (Streptococcus pneumoniae) (Streptococcus pneumoniae): 31.2 µg/mL

Question: For `COc1cc(O)c2c(c1)C(=O)C1=C(C2=O)[C@H](O)[C@@H](O)[C@@](C)(O)[C@@H]1O` [Altersolanol A, 7-methoxy-2-methyl-(1R,2S,3R,4S)-1,2,3,4-tetrahydro-1,2,3,4,5-pentahydroxy-anthracene-9,10-dione], which MIC [1] is on record?
Answer: 7.8 µg/mL (≈ 23.2 µM)

Question: And the “MHK values ASP (Aspergillus fumigatus or faecalis)” value (“MHK values ASP” below) [3]?
Answer: 7.8 µg/mL

Question: And the “MHK values EC (E. coli)” value (E. coli)?
Answer: 62.5 µg/mL

Question: What about the “MHK values AB (Acinetobacter baumanii)” value (Acinetobacter baumanii) of the same compound?
Answer: 62.5 µg/mL

Question: What about the “activity against bacteria and fungi” value (bacteria and fungi) of the same compound?
Answer: most efficient of the tested substances

Question: What about the anti-microbial activity [4] of the same compound?
Answer: anti-microbial activity

Question: What about the MIC (Staphylococcus epidermis; [6]) of the same compound?
Answer: 7.8 µg/mL (≈ 23.2 µM)

Question: And the “MHK values EK (Enterococcus faecalis or faecium)” value (“MHK values EK” for short) [2]?
Answer: 15.6 µg/mL

Question: And the “MHK values STR (Streptococcus pneumoniae)” value (“MHK values STR” below) (Streptococcus pneumoniae)?
Answer: 7.8 µg/mL

Question: Which “MHK values MRSA (methicillin-resistant Staphylococcus aureus)” value [1, 6] does the source give for `COc1cc(O)c2c(c1)C(=O)[C@H]1C[C@](C)(O)[C@H](O)C[C@@H]1[C@H]2O` [Altersolanol J] here?
Answer: 62.5 µg/mL

Question: What about the “MHK values KL (Klebsiella sp.)” value (Klebsiella sp.) of the same compound?
Answer: 125 µg/mL

Question: What about the “MHK values ASP” value [3] of the same compound?
Answer: 125 µg/mL

Question: What about the “MHK values AB (Acinetobacter baumanii)” value (Acinetobacter baumanii) of the same compound?
Answer: 125 µg/mL

Question: What about the “activity against bacteria and fungi” value (bacteria and fungi) of the same compound?
Answer: do not show any activity

Question: And the “MHK values SE (Staphylococcus epidermis)” value (Staphylococcus epidermis; [6])?
Answer: 62.5 µg/mL

Question: What about the “MHK values EK” value [2] of the same compound?
Answer: 31.2 µg/mL

Question: And the “MHK values STR” value (Streptococcus pneumoniae)?
Answer: 15.6 µg/mL

Question: With `COc1cc(O)c2c(c1)[C@H](O)[C@@H]1[C@@H](C2=O)[C@H](O)[C@@H](O)[C@@](C)(O)[C@@H]1O` [Ampelanol] as the compound, how does the “activity against bacteria and fungi” value (bacteria and fungi) read?
Answer: do not show any activity

Question: For `COC1=CC(=O)c2c(O)c3c(c(O)c2C1=O)C[C@](C)(O)[C@H](O)[C@H]3O` [Bostrycin], which MIC [1, 6] is on record?
Answer: 125 µg/mL (≈ 372 µM)

Question: And the “MHK values AB (Acinetobacter baumanii)” value (Acinetobacter baumanii)?
Answer: 125 µg/mL

Question: And the MIC (Staphylococcus epidermis; [6])?
Answer: 125 µg/mL (≈ 372 µM)

Question: And the “MHK values STR” value (Streptococcus pneumoniae)?
Answer: 62.5 µg/mL

Question: Which results are given for `COc1cc(O)c2c(c1)C(=O)[C@@H]1[C@H](C[C@@H](O)[C@@](C)(O)[C@@H]1O)[C@H]2O` [Example 2, (1R,2R,3R,4aS,9aR,10R)-1,2,3,5,10-pentahydroxy-7-methoxy-2-methyl-1,2,3,4,4a,9a-hexahydro-9H,10H-anthracen-9-one]?
Answer: MIC [1, 6]: 31.2 µg/mL (≈ 96.2 µM); MHK values ASP (Aspergillus fumigatus or faecalis) [3]: 62.5 µg/mL; MIC (Staphylococcus epidermis; [6]): 31.2 µg/mL (≈ 96.2 µM); MHK values EK (Enterococcus faecalis or faecium) [2]: 31.2 µg/mL; MHK values STR (Streptococcus pneumoniae) (Streptococcus pneumoniae): 31.2 µg/mL

Question: With `COc1cc(O)c2c(c1)[C@H](O)[C@@H]1[C@H](C[C@@H](O)[C@@](C)(O)[C@@H]1O)C2=O` [Example 3, (2R,3R,4R,4aS,9aS,10R)-2,3,4,8,10-pentahydroxy-6-methoxy-3-methyl-1,2,3,4,4a,9a-hexahydro-9H,10H-anthracen-9-one] as the compound, how does the MIC [1, 6] read?
Answer: 7.8 µg/mL (≈ 24 µM)

Question: And the “MHK values ASP” value [3]?
Answer: 31.2 µg/mL

Question: What about the “MHK values AB (Acinetobacter baumanii)” value (Acinetobacter baumanii) of the same compound?
Answer: 7.8 µg/mL

Question: What about the MIC (Staphylococcus epidermis; [6]) of the same compound?
Answer: 7.8 µg/mL (≈ 24 µM)

Question: And the “MHK values EK” value [2]?
Answer: 7.8 µg/mL

Question: What about the “MHK values STR” value (Streptococcus pneumoniae) of the same compound?
Answer: 7.8 µg/mL

Question: Which MIC [1] does the source give for `COc1cc2c(c(O)c1-c1c(OC)cc(O)c3c1C(=O)C1=C(C3=O)[C@H](O)[C@@H](O)[C@@](C)(O)[C@H]1O)C(=O)c1cc(O)c(C)cc1C2=O` [Example 4, 8-(1,7-dihydroxy-6-methyl-3-methoxy-9,10-dioxo-9H,10H-anthracen-2-yl)-(1S,2S,3R,4S)-1,2,3,4,5-pentahydroxy-7-methoxy-2-methyl-1,2,3,4-tetrahydro-9H,10H-anthracen-9,10-dione] here?
Answer: 7.8 µg/mL (≈ 12.6 µM)

Question: And the “MHK values ASP” value [3]?
Answer: 125 µg/mL

Question: And the MIC (Staphylococcus epidermis; [6])?
Answer: 7.8 µg/mL (≈ 12.6 µM)

Question: What about the “MHK values EK” value [2] of the same compound?
Answer: 7.8 µg/mL

Question: And the “MHK values STR” value (Streptococcus pneumoniae)?
Answer: 7.8 µg/mL

Question: What does the source list for `COc1cc(O)c2c(c1O)[C@H](O)[C@H]1C[C@](C)(O)[C@H](O)C[C@@H]1C2=O` [Example 5, (2R,3S,4aS,9aS,10R)-2,3,5,8,10-penta-hydroxy-6-methoxy-3-methyl-1,2,3,4,4a,9a-hexahydro-9H,10H-anthracen-9-one]?
Answer: effectiveness against Staphylococcus aureus or methicillin-resistant Staphylococcus aureus [5]: slight effectiveness; MIC [1, 6]: 15.6 µg/mL (≈ 48.1 µM); activity against methicillin-resistant Staphylococcus aureus, in words [1, 7]: very good activity; MHK values ASP (Aspergillus fumigatus or faecalis) [3]: 31.2 µg/mL; MIC (Staphylococcus epidermis; [6]): 15.6 µg/mL (≈ 48.1 µM); MHK values EK (Enterococcus faecalis or faecium) [2]: 125 µg/mL; MHK values STR (Streptococcus pneumoniae) (Streptococcus pneumoniae): 7.8 µg/mL; activity against Streptococcus pneumoniae, in words (Streptococcus pneumoniae; [7]): excellent effectiveness

Question: Which MIC [1, 6] does the source give for `COc1cc(O)c2c(c1)C(=O)c1cc(C)c(O)cc1C2=O` [Macrosporin] here?
Answer: 62.5 µg/mL (≈ 220 µM)

Question: What about the “MHK values EC (E. coli)” value (E. coli) of the same compound?
Answer: 62.5 µg/mL

Question: What about the “MHK values AB (Acinetobacter baumanii)” value (Acinetobacter baumanii) of the same compound?
Answer: 125 µg/mL

Question: And the MIC (Staphylococcus epidermis; [6])?
Answer: 62.5 µg/mL (≈ 220 µM)

Question: With `COc1cc(O)c2c(c1)C(=O)C1=C(C[C@@H](O)[C@@](C)(O)C1)C2=O` [altersolanol B] as the compound, how does the anti-microbial activity [4] read?
Answer: anti-microbial activity

Question: Which anti-microbial activity [4] does the source give for `COc1cc(O)c2c(c1)C(=O)C1=C(C[C@@H](O)[C@@](C)(O)[C@@H]1O)C2=O` [altersolanol C] here?
Answer: anti-microbial activity

Question: What does the source list for Alterporriol A + B?
Answer: MHK values MRSA (methicillin-resistant Staphylococcus aureus) [1, 6]: 15.6 µg/mL; MHK values ASP (Aspergillus fumigatus or faecalis) [3]: 62.5 µg/mL; MHK values AB (Acinetobacter baumanii) (Acinetobacter baumanii): 125 µg/mL; MHK values SE (Staphylococcus epidermis) (Staphylococcus epidermis; [6]): 15.6 µg/mL; MHK values EK (Enterococcus faecalis or faecium) [2]: 15.6 µg/mL; MHK values STR (Streptococcus pneumoniae) (Streptococcus pneumoniae): 7.8 µg/mL

Question: Which results are given for Indole carbaldehyde (carboxaldehyde)?
Answer: MHK values AB (Acinetobacter baumanii) (Acinetobacter baumanii): 125 µg/mL; MHK values PS (Pseudomonas aeruginosa) (Pseudomonas aeruginosa): 125 µg/mL; MHK values STR (Streptococcus pneumoniae) (Streptococcus pneumoniae): 62.5 µg/mL

Question: What does the source list for Macrosporin sulfate?
Answer: MHK values AB (Acinetobacter baumanii) (Acinetobacter baumanii): 125 µg/mL; MHK values STR (Streptococcus pneumoniae) (Streptococcus pneumoniae): 31.2 µg/mL

Question: Which “activity against bacteria and fungi” value (bacteria and fungi) does the source give for alterporriols D and E here?
Answer: do not show any activity

Question: Which anti-microbial activity [4] does the source give for altersolanol D here?
Answer: completely ineffective

Question: For altersolanol F, which anti-microbial activity [4] is on record?
Answer: completely ineffective
